# ChEMBL document CHEMBL5614416, “Discovery of novel thiophene[3,2-d]pyrimidine-based tubulin inhibitors with enhanced antitumor efficacy for combined use with anti-pd-l1 immunotherapy in melanoma” (Eur J Med Chem, 2024)
# Active and inactive are the calls of the source. The calls are words filed in the database; no cut-off is given here.
# Key:
# [1] = Toxicity in C57 mouse xenografted with mouse B16-F10 cells assessed as basophil count at 7 mg/kg, ip qd for 12 days by biochemical analysis (reference value: 0.060 to 25.500 10^9/L); assay type: organism-based; conditions: in vivo, 288 h, time 12 day
# [2] = Toxicity in C57 mouse xenografted with mouse B16-F10 cells assessed as lymphocytes level at 3.5 mg/kg, ip qd for 12 days in presence of NP-19 by biochemical analysis (reference value: 7.300 to 65.500 %); assay type: organism-based; conditions: in vivo, 288 h, time 12 day
# [3] = Toxicity in C57 mouse xenografted with mouse B16-F10 cells assessed as eosinophil level at 7 mg/kg, ip qd for 12 days by biochemical analysis (reference value: 0.700 to 1.000 %); assay type: organism-based; conditions: in vivo, 288 h, time 12 day
# [4] = test system: B16-F10; assay: Inhibition of cell migration in mouse B16-F10 cells assessed as reduction in wound closure incubated for 24 hrs by wound healing assay; assay type: functional, cell-based
# [5] = test system: B16-F10; assay: Induction of apoptosis in mouse B16-F10 cells assessed as decrease in Bcl-2 level upto 30 nM incubated for 24 hrs by Western blot analysis; assay type: functional, cell-based
# [6] = test system: B16-F10; assay: Induction of apoptosis in mouse B16-F10 cells assessed as early apoptotic cells at 2 nM incubated for 12 hrs by Annexin V-FITC/PI staining based flow cytometry (reference value: 3.81 %); assay type: functional
# [7] = Toxicity in C57 mouse xenografted with mouse B16-F10 cells assessed as monocytes count at 3.5 mg/kg, ip qd for 12 days in presence of NP-19 by biochemical analysis (reference value: 0.080 to 0.610 10^9/L); assay type: organism-based; conditions: in vivo, 288 h, time 12 day
# [8] = test system: B16-F10; assay: Induction of cell cycle arrest in mouse B16-F10 cells assessed as accumulation of cells at S phase at 0.5 nM incubated for 12 hrs by flow cytometry (reference value: 30.5 %); assay type: functional
# [9] = test system: B16-F10; assay: Induction of cell cycle arrest in mouse B16-F10 cells assessed as accumulation of cells at G2 phase at 1 nM incubated for 12 hrs by flow cytometry (reference value: 13.6 %); assay type: functional
# [10] = test system: B16-F10; assay: Induction of cell cycle arrest in mouse B16-F10 cells assessed as accumulation of cells at S phase at 1 nM incubated for 12 hrs by flow cytometry (reference value: 30.5 %); assay type: functional
# [11] = Toxicity in C57 mouse xenografted with mouse B16-F10 cells assessed as WBC count at 3.5 mg/kg, ip qd for 12 days in presence of NP-19 by biochemical analysis (reference value: 8.240 to 8.340 10^9/L); assay type: organism-based; conditions: in vivo, 288 h, time 12 day
# [12] = test system: B16-F10; assay: Induction of cell cycle arrest in mouse B16-F10 cells assessed as accumulation of cells at G2 phase at 0.5 nM incubated for 12 hrs by flow cytometry (reference value: 13.6 %); assay type: functional
# [13] = Toxicity in C57 mouse xenografted with mouse B16-F10 cells assessed as monocytes count at 7 mg/kg, ip qd for 12 days by biochemical analysis (reference value: 0.080 to 0.610 10^9/L); assay type: organism-based; conditions: in vivo, 288 h, time 12 day
# [14] = test system: B16-F10; assay: Induction of cell cycle arrest in mouse B16-F10 cells assessed as accumulation of cells at G1 phase at 0.5 nM incubated for 12 hrs by flow cytometry (reference value: 52.0 %); assay type: functional
# [15] = test system: B16-F10; assay: Induction of apoptosis in mouse B16-F10 cells assessed as necrotic cells at 0.5 nM incubated for 12 hrs by Annexin V-FITC/PI staining based flow cytometry (reference value: 0.25 %); assay type: functional
# [16] = Toxicity in C57 mouse xenografted with mouse B16-F10 cells assessed as MPV level at 3.5 mg/kg, ip qd for 12 days in presence of NP-19 by biochemical analysis (reference value: 6.200 to 15.000); assay type: organism-based; conditions: in vivo, 288 h, time 12 day
# [17] = Toxicity in C57 mouse xenografted with mouse B16-F10 cells assessed as MCHC level at 7 mg/kg, ip qd for 12 days by biochemical analysis (reference value: 324.000 to 683.000 g/L); assay type: organism-based; conditions: in vivo, 288 h, time 12 day
# [18] = test system: HeLa; assay: Antiproliferative activity against human HeLa cells incubated for 48 hrs by MTT assay; assay type: functional, cell-based
# [19] = test system: B16-F10; assay: Induction of cell cycle arrest in mouse B16-F10 cells assessed as accumulation of cells at G1 phase at 2 nM incubated for 12 hrs by flow cytometry (reference value: 52.0 %); assay type: functional
# [20] = Toxicity in C57 mouse xenografted with mouse B16-F10 cells assessed as body weight change at 7 mg/kg, ip qd for 12 days; assay type: organism-based; conditions: in vivo, 288 h, time 12 day
# [21] = Toxicity in C57 mouse xenografted with mouse B16-F10 cells assessed as PCT level at 7 mg/kg, ip qd for 12 days by biochemical analysis (reference value: 0.425 to 5.300); assay type: organism-based; conditions: in vivo, 288 h, time 12 day
# [22] = test system: B16-F10; assay: Induction of apoptosis in mouse B16-F10 cells assessed as increase in Bax level upto 30 nM incubated for 24 hrs by Western blot analysis; assay type: functional, cell-based
# [23] = Toxicity in C57 mouse xenografted with mouse B16-F10 cells assessed as morphological abnormality in kidney at 7 mg/kg, ip qd for 12 days by H and E staining based analysis; assay type: organism-based; conditions: in vivo, 288 h, time 12 day
# [24] = test system: B16-F10; assay: Induction of apoptosis in mouse B16-F10 cells assessed as viable cells at 1 nM incubated for 12 hrs by Annexin V-FITC/PI staining based flow cytometry (reference value: 93.6 %); assay type: functional; conditions: read-out: Activity
# [25] = test system: B16-F10; assay: Induction of cell cycle arrest in mouse B16-F10 cells assessed as accumulation of cells at S phase at 2 nM incubated for 12 hrs by flow cytometry (reference value: 30.5 %); assay type: functional
# [26] = test system: B16-F10; assay: Inhibition of cell migration in mouse B16-F10 cells assessed as migration rate at 4 nM incubated for 24 hrs by wound healing assay (reference value: 61.1 %); assay type: functional; parameters: scale not given: the % may be the effect or the level left
# [27] = test system: B16-F10; assay: Antitumor activity against mouse B16-F10 cells xenografted in C57 mouse assessed as suppression of tumor growth at 7 mg/kg, ip qd for 12 days; assay type: functional, organism-based; conditions: time 12.0 day
# [28] = Toxicity in C57 mouse xenografted with mouse B16-F10 cells assessed as MCHC level at 3.5 mg/kg, ip qd for 12 days in presence of NP-19 by biochemical analysis (reference value: 324.000 to 683.000 g/L); assay type: organism-based; conditions: in vivo, 288 h, time 12 day
# [29] = Toxicity in C57 mouse xenografted with mouse B16-F10 cells assessed as morphological abnormality in liver at 3.5 mg/kg, ip qd for 12 days in presence of NP-19 by H and E staining based analysis; assay type: organism-based; conditions: in vivo, 288 h, time 12 day
# [30] = test system: B16-F10; assay: Induction of apoptosis in mouse B16-F10 cells assessed as late apoptotic cells at 1 nM incubated for 12 hrs by Annexin V-FITC/PI staining based flow cytometry (reference value: 2.39 %); assay type: functional
# [31] = test system: B16-F10; assay: Antitumor activity against mouse B16-F10 cells xenografted in C57 mouse at 3.5 mg/kg, ip qd for 12 days in presence of NP-19 relative to control; assay type: functional; conditions: B16-F10, 288 h, time 12 day, read-out: TGI
# [32] = test system: B16-F10; assay: Induction of apoptosis in mouse B16-F10 cells assessed as necrotic cells at 1 nM incubated for 12 hrs by Annexin V-FITC/PI staining based flow cytometry (reference value: 0.25 %); assay type: functional
# [33] = test system: MCF7; assay: Inhibition of cell migration in human MCF7 cells assessed as migration rate at 4 nM incubated for 24 hrs by wound healing assay (reference value: 18.1 %); assay type: functional; parameters: scale not given: the % may be the effect or the level left
structure (smiles),measurement,setting,value
Cc1nc(N(C)c2ccc3c(ccn3C)c2)c2sccc2n1,Activity,[1],0.01 10^9/L
same,Activity,[2],2.4%
same,Activity,[3],0.3%
same,inhibition,[4],Dose-Dependent Effect
same,Activity,[5],Active
same,Activity,[6],14.2%
same,Activity,[7],0.06 10^9/L
same,Activity,[8],15.9%
same,Activity,[9],61.9%
same,Activity,[10],22.3%
same,Activity,[11],4.22 10^9/L
same,Activity,[12],58.9%
same,Activity,[13],0.01 10^9/L
same,Activity,[14],21.3%
same,Activity,[15],1.44%
same,Activity,[16],6
same,Activity,[17],322 g/L
same,IC50,[18],5.37 nM
same,Activity,[19],5.24%
same,Activity,[20],Non-Toxic
same,Activity,[21],0.329
same,Activity,[22],Active
same,Activity,[23],Non-Toxic
same,viability at 0.001 µM,[24],77.1%
same,Activity,[25],19.3%
same,Activity,[26],5.23%
same,Activity,[27],Active
same,Activity,[28],343 g/L
same,Activity,[29],Non-Toxic
same,Activity,[30],7.92%
same,inhibition in vivo at 3.5 mg/kg,[31],75.7%
same,Activity,[32],4.4%
same,Activity,[33],3.23%
